Results: patent US9682965B2, “Fumagillol heterocyclic compounds and methods of making and using same” (Zafgen, Inc., priority 2015, dated 2017)
Structures can show the parent of a compound that is named as a salt. Where two headings read alike, the source gives them in different places.

What was measured:
recombinant human MetAP2 = recombinant human MetAP2 (Homo sapiens (Human), UniProt P50579); assay: recombinant human MetAP2 enzyme inhibition assay; format: biochemical
Outline: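 Flag-tagged human recombinant MetAP2, preincubated with MnCl2, acting on MAS peptide substrate with coupled amino acid oxidase in 50 mM HEPES, 100 mM NaCl, pH 7.5. Incubation 25 min at 25 °C, then Amplex detection reagent added for fluorescence read-out. Duplicates, two runs, no-enzyme blanks.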

[1] = system: Diet Induced Obese (DIO) C57BL/6 mice; assay: 10 day DIO mouse model (body weight, food intake, hematology, blood chemistry); format: in vivo; conditions: 240 h, read-out: DIO Mouse 10-day weight loss vs vehicle
Outline: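 DIO C57BL/6 mice on 60% kcal fat diet received compounds subcutaneously once daily for 10 days at 1.0, 0.5, 0.3, 0.1 or 0.03 mpk, in 10% DMSO in water, after 3-day vehicle acclimation. Body weight and food intake were recorded daily. Hematology and blood chemistry were taken on Day 11, 24 h post-final dose.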

[2] = system: Male Sprague Dawley rats on high fat diet; assay: 11 day rat DIO model (body weight, food intake, hematology, blood chemistries); format: in vivo; conditions: 264 h, read-out: DIO Rat 11-day weight loss vs vehicle
Outline: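 Male Sprague Dawley rats on 45% high-fat diet, acclimated 3 days to vehicle injections, then given compound (0.03-1.0 mg/kg) or vehicle (10% DMSO in water) sc once daily for 11 days. Body weight and food intake recorded daily. Blood taken about 2 h after the final dose for hematology and chemistry.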

[3] = system: pregnant Sprague Dawley rats (embryo/fetal development)
Description: Study Summary Rat Embryofetal:
The objective of this study design was to evaluate the potential effects of disclosed compounds on embryo/fetal development when given subcutaneously to pregnant rats once every three days during the critical period of organogenesis (Gestation Days 6-18). Female, Sprague Dawley rats, approximately 10 weeks of age, time bred, were ordered from a certified vendor and housed individually housed in stainless steel cages suspended over flush pans, on a 12-hour light-dark cycle (0700-1900) at 20-26° C. and 30-70% humidity. Rats were fed a standard rodent chow and provided water ad libitum. Rats were received and housed in the facility for a period of approximately 1 to 2 days.
Compounds were formulated using 100% DMSO mixed in Sterile Water for Injection, resulting in 2% DMSO solution in water. If necessary, due to limited solubility of a test article, a higher percentage of DMSO solution in water was used. Groups of 8 mated and presumed pregnant female rats were given subcutaneous doses of vehicle or test article, once every three days, beginning on Gestation Day 6 and ending on Gestation Day 18 (Days 6, 9, 12, 15, and 18), maintained two more days, and then euthanized and necropsied on Gestation Day 20. Body weights was recorded for all animals on Gestation Days 5 (purpose of randomization), 6, 9, 12, 15, 18, and 20 (scheduled euthanasia). Food consumption by weight was recorded on Gestation Days 6, 9, 12, 15, 18, and 20 (scheduled termination).
At necropsy, the dams were examined visually for external abnormalities including palpable masses. The abdominal, thoracic, and cranial cavities and their contents were examined for abnormalities and findings will be recorded. The reproductive tract were examined to record the number of ovarian corpora lutea, the number and location of uterine implantation sites noting the position of the cervix, and the number of early resorptions, late resorptions, live fetuses, and dead fetuses. For dead fetuses and late resorptions, crown-to-rump length and weight were recorded, if possible, and the fetus was discarded. For viable fetuses, weight, sex, and grossly visible external abnormalities were recorded.

Chain of recombinant human MetAP2 (P50579 whole entry): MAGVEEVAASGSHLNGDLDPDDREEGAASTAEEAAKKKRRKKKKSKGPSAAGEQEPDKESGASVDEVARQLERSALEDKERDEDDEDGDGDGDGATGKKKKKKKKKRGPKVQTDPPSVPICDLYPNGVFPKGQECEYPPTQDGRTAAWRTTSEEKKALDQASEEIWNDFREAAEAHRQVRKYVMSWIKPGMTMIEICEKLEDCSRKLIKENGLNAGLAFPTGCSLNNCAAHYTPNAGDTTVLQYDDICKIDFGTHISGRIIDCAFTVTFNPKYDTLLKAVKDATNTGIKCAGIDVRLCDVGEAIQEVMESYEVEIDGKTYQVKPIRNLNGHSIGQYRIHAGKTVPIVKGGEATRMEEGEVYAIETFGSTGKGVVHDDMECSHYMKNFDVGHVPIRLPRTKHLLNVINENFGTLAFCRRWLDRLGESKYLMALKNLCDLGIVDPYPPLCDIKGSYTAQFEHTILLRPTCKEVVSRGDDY

| SMILES | IC50 (recombinant human MetAP2) [nM] | inhibition in vivo at 0.3 mg/kg ([1]; Mus musculus, sc) [%] | inhibition in vivo at 0.3 mg/kg ([2]; Rattus norvegicus, sc) [%] | Rat Embryofetal @6 mpk ([3]; rat, in vivo) | IC50 (recombinant human MetAP2; recombinant human MetAP2, MAS peptide substrate, 25 minutes at 25° C) [nM] | inhibition in vivo at 0.1 mg/kg ([1]; DIO mouse, 0.1 mpk sc, once a day for 10 days) [%] | inhibition in vivo at 0.3 mg/kg ([1]; DIO mouse, 0.3 mpk sc, once a day for 10 days) [%] | inhibition in vivo at 1 mg/kg ([1]; DIO mouse, 1.0 mpk sc, once a day for 10 days) [%] | inhibition in vivo at 0.5 mg/kg ([2]; DIO rat, 0.5 mpk sc, once a day for 11 days) [%] | inhibition in vivo at 1 mg/kg ([2]; DIO rat, 1.0 mpk sc, once a day for 11 days) [%] | Rat Embryofetal @6 mpk ([3]; 6 mpk, subcutaneous, once every three days, Gestation Days 6-18, pregnant rats) |
| --- | --- | --- | --- | --- | --- | --- | --- | --- | --- | --- | --- |
| CCN(CC)CCNC(=O)CCC1CN(C(=O)O[C@@H]2CC[C@]3(CO3)[C@@H]([C@@]3(C)O[C@@H]3CC=C(C)C)[C@@H]2OC)C1 [Example 88, (3R,4S,5S,6R)-5-methoxy-4-((2R,3R)-2-methyl-3-(3-methylbut-2-enyl)oxiran-2-yl)-1-oxaspiro[2.5]octan-6-yl 3-(3-(2-(diethylamino)ethylamino)-3-oxopropyl)azetidine-1-carboxylate formate] | < 50 | 9 | 4.4 | Positive | – | – | – | – | – | – | – |
| CCN(CC)CCC1CN(C(=O)O[C@@H]2CC[C@]3(CO3)[C@@H]([C@@]3(C)O[C@@H]3CC=C(C)C)[C@@H]2OC)C1 [Example 103, (3R,4S,5S,6R)-5-methoxy-4-((2R,3R)-2-methyl-3-(3-methylbut-2-enyl)oxiran-2-yl)-1-oxaspiro[2.5]octan-6-yl 3-(2-(diethylamino)ethyl)azetidine-1-carboxylate] | – | – | – | – | < 50 | 5.1 | 6.7 | 15.8 | 2.57 | 4.7 | Positive |
